Where a name gives a salt, the structure may show the parent alone.

The text below walks through data of paper PMC4893617 (Scientific Reports, 2016).

Assay [1] deals with T1, ChuaMOX (mandelonitrile oxidase) (Chamberlinius hualienensis, UniProt A0A173MZJ8).
T1 construct: native enzyme purified from millipede bodies without guts; ORF 593 residues incl; 17-residue signal peptide; predicted mature 62,818 Da; 67 kDa SDS-PAGE, 65 kDa gel filtration; monomeric, glycosylated, FAD
Nature of the assay: biochemical. Further details: Oxidase activity of purified native ChuaMOX, ABTS read-out, pH 5, compound added at 1 mM. Particulars: for remaining activity at 1000 µM: read-out: % of control remaining. Here is the method:
Enzymatic activity decreased in conditions approaching neutral pH, and it was lowest at a pH of 7 (Fig. 1c). After one hour of incubation at 25 °C, 80% of the ChuaMOX activity remained over a range of pH values between 3 and 10 (Fig. 1d). […] After one hour of incubation at pH 8, 80% of the activity remained between 25 °C and 50 °C, and all activity was lost at 70 °C (Fig. 1f). […] (Table 1). The enzyme required [compound left out] as a substrate rather than [compound left out] (see Supplementary Table S3). […] The chemicals (see Supplementary Table S5) were purchased from various suppliers (Sigma-Aldrich, Dojindo, Alfa Aesar, and Tokyo Chemical Industries) or synthesized as described below and used as test substrates, inhibitors, and metal salts. Nitriles were prepared from their corresponding aldehydes by way of bisulfite adducts according to Young et al.[23].

Assay [2] concerns the target T1, ChuaMOX (mandelonitrile oxidase). The class given is binding.
The target is the same in assay [3]. The class given is biochemical.

T1 sequence (A0A173MZJ8 entry or part of it): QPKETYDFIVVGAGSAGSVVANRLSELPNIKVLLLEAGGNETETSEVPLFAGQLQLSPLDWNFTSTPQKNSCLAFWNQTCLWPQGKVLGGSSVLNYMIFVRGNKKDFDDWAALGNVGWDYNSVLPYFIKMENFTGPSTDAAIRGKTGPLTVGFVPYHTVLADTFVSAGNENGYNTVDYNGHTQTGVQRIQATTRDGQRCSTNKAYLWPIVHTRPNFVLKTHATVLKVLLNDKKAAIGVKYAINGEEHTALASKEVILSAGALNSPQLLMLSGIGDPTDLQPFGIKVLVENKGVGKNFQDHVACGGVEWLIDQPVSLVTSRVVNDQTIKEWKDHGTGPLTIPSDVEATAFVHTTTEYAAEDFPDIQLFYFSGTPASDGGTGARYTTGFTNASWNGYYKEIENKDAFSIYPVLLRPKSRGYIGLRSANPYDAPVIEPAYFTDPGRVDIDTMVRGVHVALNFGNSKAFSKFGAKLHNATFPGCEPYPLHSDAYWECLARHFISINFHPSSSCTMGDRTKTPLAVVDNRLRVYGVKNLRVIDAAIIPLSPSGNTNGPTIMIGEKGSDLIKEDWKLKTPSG

As to `c1ccc(-c2ccccn2)nc1` [2,2'-Bipyridyl], the remaining activity at 1000 µM in assay [1] was found to be 87.3%. For the compound `c1cnc2c(c1)ccc1cccnc12` [1,10-Phenanthroline], the remaining activity at 1000 µM in assay [1] was 84.1%. As to `NNC(N)=O` [Semicarbazide hydrochloride], in assay [1], the remaining activity at 1000 µM worked out at 92%. With `CC(C)NNC(=O)c1ccncc1` [Iproniazid], the remaining activity at 1000 µM in assay [1] worked out at 80%.

Turning to `Cc1cc2nc3c(=O)[nH]c(=O)nc-3n(C[C@H](O)[C@H](O)[C@H](O)COP(=O)(O)OP(=O)(O)OC[C@H]3O[C@@H](n4cnc5c(N)ncnc54)[C@H](O)[C@@H]3O)c2cc1C` [flavin adenine dinucleotide], the “thin layer chromatography of the prosthetic group; UV-visible spectrum of purifi” value in assay [2] was “Thin layer chromatography (TLC) identified the prosthetic group as flavin adenine dinucleotide (FAD)”. `C#CCN(C)Cc1ccccc1` [Pargyline]: the remaining activity at 1000 µM in assay [1] came to 100%. For the compound `NNC(=O)c1ccncc1` [Isoniazid], the remaining activity at 1000 µM in assay [1] turned out to be 88%. `Oc1cccc2cccnc12` [8-Hydroxyquinoline]: the “% of control remaining” value in assay [1] (pH 5, standard assay, 1000 µM, inhibitor) came out at 56.0%.

Take `N#CC(O)c1ccccc1` (racemic) [racemic mandelonitrile]: in assay [3], the Km is 2100 µM. As for `O=C(O)CI` [Iodoacetic acid], in assay [1], the remaining activity at 1000 µM came out at 71.4%. `CCN1C(=O)C=CC1=O` [N-Ethylmaleimide]: in assay [1], the remaining activity at 1000 µM turned out to be 96.8%.

As a reminder, the Km is the substrate concentration at which the rate is half of its maximum.
